According to patent publication US20230364084A1, “METHODS FOR PREVENTING OR TREATING CONDITIONS RELATED TO PIKFYVE ACTIVITY” (The Regents of the University of Michigan, priority 2020, published 2023):

Key:
[1] = system: DU145 prostate cancer cells; test: cell viability screen with a 167-compound tyrosine kinase inhibitor library; format: cell-based, human
Experimental: FIG. 1: ESK981 inhibits the growth of diverse preclinical models of prostate cancer and is associated with a unique vacuolization morphology. • (a) The percentage viabilities of DU145 cells treated with 300 nM ESK981 or 167 other tyrosine kinase inhibitors when compared to a vehicle control. The top five most inhibitory compounds, as well as cabozantinib and crizotinib (highlighted in orange), and their respective targets are listed in the table. ESK981 is highlighted in red. • (b) Morphological differences of nuclear-restricted RFP-expressing DU145 cells treated with 300 nM ESK981, crizotinib, or cabozantinib. • (c) A long-term survival assay was used to calculate the half-maximum inhibitory concentration (IC50) after two weeks of incubation with the serial dilutions of indicated drugs. (Top) Long-term survival assays of VCaP prostate cancer cells exposed to MTKIs. (Bottom) IC50 of ESK981, crizotinib, and cabozantinib in a panel of prostate cancer cell lines. • (d) ESK981 was effective against enzalutamide (Enza)-resistant cell lines. […] Long-term survival (two weeks) was assayed by absorbance of crystal violet at OD590. • (e) VCaP-RFP cells were cultured for three days in ultralow attachment plates to form 3D tumor spheroids prior to the indicated drug treatments. […] Fluorescence intensity of 3D spheroids was measured by IncuCyte ZOOM. • (f) Castration-resistant VCaP tumors were established subcutaneously in castrated SCID mice, and mice were randomized into three groups, which received vehicle, 30 mg/kg, or 60 mg/kg ESK981 by oral gavage once per day for the indicated dosing schedule. Tumor volumes were monitored by a digital caliper twice per week. Data were analyzed by unpaired t test and presented as mean±SEM. *p<0.05; **p<0.01. • (g) AR^+ prostate patient-derived xenograft (PDX) MDA-PCa-146-12 were implanted subcutaneously in non-castrated SCID mice, and mice were randomized into two groups receiving either once daily vehicle or 30 mg/kg ESK981 for five days each week. […] Tumor volumes were monitored twice per week. […]

[2] = system: CXCL10 in VCaP, PC3 and DU145 cells; test: CXCL10 mRNA by qPCR in the presence of IFNγ; format: cell-based, human; details: PC3 and DU145, 24 hours
Experimental: Total RNA was extracted from cells or tissue using the miRNeasy mini kit (Qiagen), and cDNA was synthesized from 1 μg total RNA using the High Capacity cDNA Reverse Transcription Kit (Applied Biosystems). qPCR was performed using Fast SYBR Green Master Mix (Applied Biosystems) on the ViiA7 Real-Time PCR System (Applied Biosystems). The target mRNA expression was quantified using the ΔΔCt method and normalized to GAPDH expression. The primer sequences used for the SYBR green qPCR are as follows: […]

VCaP cells = test: human cytokine array of conditioned medium; format: cell-based; details: VCaP conditioned media, 300 nM, 24 hours
Experimental: Cells were seeded in 6-well plates, and conditioned medium was collected after 24 hours of drug incubation. Cytokine expression was determined by proteome profiler mouse XL cytokine array (Cat No. ARY028, R&D System) or proteome profiler human XL cytokine array kit (Cat No. ARY022, R&D System) according to the manufacturer's instructions.

[3] = system: prostate cancer cell lines (VCaP, LNCaP, 22RV1, LNCaP-AR, PC3, DU145); test: long-term survival assay (14 days, crystal violet); format: cell-based, human; details: Homo sapiens, 336 h; range across AR positive (VCaP, LNCaP, 22RV1, LNCaP-AR) and AR-negative (PC3, DU145) cell lines, two weeks; read-out: growth inhibitory IC50
Experimental: Single cell suspensions were seeded into 96-well plates at a density of 1,000-30,000 cells per well. Long-term survival was determined after 14 days of drug incubation. Viable cells were fixed with 4% formaldehyde and subsequently stained with 1% crystal violet. IC50 was calculated using GraphPad Prism.

Tie-2 (TEK) = Tie-2 (TEK) (Homo sapiens, UniProt Q02763); details: cited from earlier work
[4] = system: MDA-PCa-146-10 neuroendocrine prostate cancer PDX; test: MDA-PCa-146-10 patient-derived xenograft; format: in vivo, mouse; details: 30 mg/kg
Experimental: The University of Texas M.D. Anderson Cancer Center (MDACC) patient-derived xenografts (PDX) series has been previously described^62-64. PDXs were derived from men with CRPC undergoing palliative resections using described protocols^65,66. MDA-PCa-146-12 and 146-10 PDX were derived from a patient initially diagnosed with Gleason 3+4=7 prostate adenocarcinoma with an initial PSA of 10.7 ng/ml. […] PDXs were maintained in male SCID mice by surgically implanting 2 mm^3 tumors coated with 100% Matrigel to both flanks of mice. Once tumors reached 100-200 mm^3 in size, mice were randomized and divided into different treatment groups receiving either 30 mg/kg ESK981 or vehicle (ORA-PLUS) by oral gavage 5 days per week.

Chain of Tie-2 (TEK) (Q02763 23-1124, species assumed): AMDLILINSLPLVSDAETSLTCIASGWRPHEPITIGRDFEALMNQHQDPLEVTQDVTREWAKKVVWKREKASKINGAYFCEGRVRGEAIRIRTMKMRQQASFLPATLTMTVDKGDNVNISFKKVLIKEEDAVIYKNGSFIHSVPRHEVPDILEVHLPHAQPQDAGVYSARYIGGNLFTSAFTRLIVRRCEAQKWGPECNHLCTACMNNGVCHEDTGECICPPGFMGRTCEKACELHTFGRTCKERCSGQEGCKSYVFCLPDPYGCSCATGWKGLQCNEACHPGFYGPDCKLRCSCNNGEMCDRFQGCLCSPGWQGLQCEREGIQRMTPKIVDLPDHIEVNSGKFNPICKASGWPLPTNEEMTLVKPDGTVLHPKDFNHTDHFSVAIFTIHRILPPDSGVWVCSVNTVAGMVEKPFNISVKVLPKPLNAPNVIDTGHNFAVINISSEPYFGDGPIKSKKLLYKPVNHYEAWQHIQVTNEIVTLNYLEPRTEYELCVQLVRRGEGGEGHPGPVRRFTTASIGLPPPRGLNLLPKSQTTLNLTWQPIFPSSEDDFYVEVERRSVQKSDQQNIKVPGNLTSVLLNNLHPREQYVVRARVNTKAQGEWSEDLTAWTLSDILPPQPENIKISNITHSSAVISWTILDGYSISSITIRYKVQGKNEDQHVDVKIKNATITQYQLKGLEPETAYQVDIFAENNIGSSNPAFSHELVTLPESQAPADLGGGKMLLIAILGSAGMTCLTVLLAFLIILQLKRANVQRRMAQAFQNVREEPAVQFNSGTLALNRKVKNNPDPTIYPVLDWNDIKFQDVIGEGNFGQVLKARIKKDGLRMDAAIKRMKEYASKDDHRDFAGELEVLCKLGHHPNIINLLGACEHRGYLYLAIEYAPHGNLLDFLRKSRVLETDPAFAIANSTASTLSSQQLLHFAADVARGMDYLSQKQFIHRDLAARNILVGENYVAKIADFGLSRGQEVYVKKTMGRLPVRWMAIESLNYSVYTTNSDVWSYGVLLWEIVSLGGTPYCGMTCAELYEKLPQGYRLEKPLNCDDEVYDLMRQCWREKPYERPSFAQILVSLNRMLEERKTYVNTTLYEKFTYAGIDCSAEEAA

CC(C)Cn1c2ccc(Nc3ncccn3)cc2c2c3c(c4c(c21)CCc1nn(C)cc1-4)C(=O)NC3 [ESK981, 13-isobutyl-4-methyl-10-(pyrimidin-2-ylamino)-1,2,4,7,8,13-hexahydro-6H-indazolo[5,4-a]pyrrolo[3,4-c]carbazol-6-one]
growth inhibition (cell viability) ([1]; 300 nM): potent growth inhibition | cytoplasmic vacuolization morphology ([1]; among the 167 compounds tested): uniquely triggered a cytoplasmic vacuolization morphology | expression of CXCL10 in the presence of IFNγ [2]: enhance expression of CXCL10 | cytokines induced (array of 105 cytokines) (VCaP cells): significantly induced only CXCL10 and, to a lesser extent, CCL2 | IC50 [3]: 35 to 192 nM | activity against kinase (Tie-2 (TEK)): potent activity | tumor weights ([4]; day 21): significant decreases in tumor weights | tumor growth ([4]; oral gavage 5 days per week, SCID mice): Significant inhibition of tumor growth
